Laboratory results as given in patent publication US7915402B2, “Antioxidant inflammation modulators: oleanolic acid derivatives with saturation in the C-ring” (Reata Pharmaceuticals, Inc., priority 2008, dated 2011).
Several values for one entry are separate records, joined by “and”; a condition that tells them apart may be missing. Equal values may be shown once. Read-outs that look alike come from different tables or passages of the source.

What was measured:
[1] = Plasma pharmacokinetics after oral dosing in rats; type: in vivo, Sprague Dawley rats; conditions: SD rats, oral gavage
Procedure: Compound 404-02 reaches high concentrations in the lung and CNS of rats following oral dosing: To assess basic pharmacokinetic parameters following oral dosing, 9 male and 9 female Sprague Dawley (SD) rats were administered 404-02 at 1, 10 or 50 mg/kg doses via oral gavage. Doses were prepared in sesame oil and individualized to body weight on the day of dosing. Blood was drawn at 0, 1, 2, 4, 8 and 24 hours post-dose on days 1 and 15. Blood was collected from the orbital sinus after carbon dioxide/oxygen inhalation for determination of 404-02 plasma concentrations. Plasma was transferred to cryovials and stored at −80° C. until processing and LC-MS/MS analysis. A standard curve was derived for 404-02 in rat plasma, and quantification of experimental results was based on this standard curve.
Pharmacokinetic parameters were obtained using non-compartmental analysis, WinNonlin™ version 5.2.

[2] = CNS and lung tissue concentrations after oral dosing in rats; type: in vivo; conditions: both sexes, Sprague Dawley, rat, SD rats, oral gavage, day 15, 3 h post-dose
Procedure: To examine tissue concentrations following oral dosing, 5 male and 5 female Sprague Dawley (SD) rats were administered 404-02 at 1, 10, 50 or 150 mg/kg/day via oral gavage. Doses were prepared in sesame oil and individualized to body weight on the day of dosing. Animals were sacrificed 3 hours post-dose on day 15 of study following harvest of brain and lung specimens. Each sample collected was rinsed in 1× isotonic phosphate buffered saline and blotted dry before weighing. Tissue slices were transferred to cryovials and stored at −80° C. until processing and LC-MS/MS analysis. Standard curves were derived for 404-02 in these tissues.

Ferritin heavy chain = assay: Induction of ferritin heavy chain mRNA (qPCR); type: cell-based, human; conditions: MDA-MB-435 cells, 16 hours
Procedure: FIG. 24. Induction of Ferritin Heavy Chain. MDA-MB-435 human melanoma cells were treated with vehicle (DMSO) or the indicated compounds and concentrations for 16 hours. Ferritin heavy chain mRNA levels were quantified using qPCR and were normalized relative to a DMSO-treated sample run in parallel. Values are averages of duplicate wells.
Nrf2 target gene induction. MDA-MB-435 human melanoma cells were treated with vehicle (DMSO) or the indicated compounds and concentrations for 16 hours. HO-1, thioredoxin reductase-1 (TrxR1), γ-glutamylcysteine synthetase (γ-GCS), and ferritin heavy chain mRNA levels were quantified using qPCR and were normalized relative to a DMSO-treated sample run in parallel. Values are averages of duplicate wells. Primer sequences are as follows.

[3] = Plasma pharmacokinetics after oral dosing in monkeys; type: in vivo; conditions: cynomolgus monkey; for Mean Maximum 404-02 Plasma Concentration (nM) ± SEM / Mean Maximum 404-02 Plasma Concentration (ng/mL) ± SEM: oral gavage
Procedure: Doses were prepared in sesame oil and individualized to body weight on the day of dosing. Blood was drawn prior to dosing and at 1, 2, 4, 8 and 24 hours post -dose on days 1 and 12. Blood samples were collected from the femoral artery/vein for determination of 404-02 plasma concentrations. Blood was placed in tubes containing K3EDTA and stored on ice until centrifugation at room temperature. The isolated plasma was transferred to cryovials and stored at −80° C. until sample processing and LC -MS/MS analysis. Extracted plasma standard curves were prepared from fresh stock solutions and analyzed prior to study samples.
Population mean pharmacokinetic parameter estimates were obtained by performing non-compartmental analysis of the 404-02 plasma concentration-versus-time data using WinNonlin™ software version 5.2.
Pharmacokinetic parameters obtained using non-compartmental analysis, WinNonlin™ version 5.2.
Pharmacokinetic parameters were obtained using non-compartmental analysis using WinNonlin™ version 5.2 software.

[4] = 1 mg/kg/day, day 1, n=9/sex/dose level
[5] = 1 mg/kg/day, day 15, n=9/sex/dose level
[6] = 10 mg/kg/day, day 1, n=9/sex/dose level
[7] = 10 mg/kg/day, day 15, n=9/sex/dose level
[8] = 50 mg/kg/day, day 1, n=9/sex/dose level
[9] = 50 mg/kg/day, day 15, n=9/sex/dose level

With `CC1(C)CC[C@]2(C(=O)NCC(F)(F)F)CC[C@]3(C)[C@H](C(=O)C[C@@H]4[C@@]5(C)C=C(C#N)C(=O)C(C)(C)[C@@H]5CC[C@]43C)[C@@H]2C1` [Compound 63102, (4aS,6aR,6bR,8aR,12aR,12bR,14aR,14bS)-11-cyano-2,2,6a,6b,9,9,12a-heptamethyl-10,14-dioxo-N-(2,2,2-trifluoroethyl)-1,2,3,4,4a,5,6,6a,6b,7,8,8a,9,10,12a,12b,13,14,14a,14b-icosahydropicene-4a-carboxamide] the “Mean Maximum 404-02 Plasma Concentration (nM) ± SEM” value [1, 4] was 5.7 ± 1.1 nM, the “Mean Maximum 404-02 Plasma Concentration (ng/mL) ± SEM” value [1, 4] was 3.3 ± 0.65 ng/mL and the “Mean Maximum 404-02 Plasma Concentration (nM) ± SEM” value [1, 5] was 11.0 ± 1.6 nM. The “Mean Maximum 404-02 Plasma Concentration (ng/mL) ± SEM” value [1, 5] was 6.3 ± 0.9 ng/mL, the “Mean Maximum 404-02 Plasma Concentration (nM) ± SEM” value [1, 6] was 116 ± 28.7 nM and the “Mean Maximum 404-02 Plasma Concentration (ng/mL) ± SEM” value [1, 6] was 66 ± 16.5 ng/mL. The “Mean Maximum 404-02 Plasma Concentration (nM) ± SEM” value [1, 7] was 210 ± 42.3 nM, the “Mean Maximum 404-02 Plasma Concentration (ng/mL) ± SEM” value [1, 7] was 144 ± 24.3 ng/mL and the “Mean Maximum 404-02 Plasma Concentration (nM) ± SEM” value [1, 8] was 1241 ± 171 nM. For the same compound, the “Mean Maximum 404-02 Plasma Concentration (ng/mL) ± SEM” value [1, 8] was 713 ± 98.2 ng/mL, the “Mean Maximum 404-02 Plasma Concentration (nM) ± SEM” value [1, 9] was 1966 ± 199 nM and the “Mean Maximum 404-02 Plasma Concentration (ng/mL) ± SEM” value [1, 9] was 1129 ± 114 ng/mL. It also gave a concentration at 3 h ([2]; brain (CNS tissue), 1 mg/kg/day, read-out: Mean 404-02 CNS Tissue Concentration (nM) ± SEM) of 51 ± 11.8 nM, a concentration at 3 h ([2]; brain (CNS tissue), 1 mg/kg/day, read-out: Mean 404-02 CNS Tissue Content (ng/g = ng/mL) ± SEM) of 29 ± 6.8 ng/g and a concentration at 3 h ([2]; brain (CNS tissue), 10 mg/kg/day, read-out: Mean 404-02 CNS Tissue Concentration (nM) ± SEM) of 733 ± 173 nM. The concentration at 3 h ([2]; brain (CNS tissue), 10 mg/kg/day, read-out: Mean 404-02 CNS Tissue Content (ng/g = ng/mL) ± SEM) was 421 ± 99 ng/g, the concentration at 3 h ([2]; brain (CNS tissue), 50 mg/kg/day, read-out: Mean 404-02 CNS Tissue Concentration (nM) ± SEM) was 1310 ± 188 nM and the concentration at 3 h ([2]; brain (CNS tissue), 50 mg/kg/day, read-out: Mean 404-02 CNS Tissue Content (ng/g = ng/mL) ± SEM) was 750 ± 108 ng/g. The concentration at 3 h ([2]; brain (CNS tissue), 150 mg/kg/day, read-out: Mean 404-02 CNS Tissue Concentration (nM) ± SEM) was 1110 ± 143 nM, the concentration at 3 h ([2]; brain (CNS tissue), 150 mg/kg/day, read-out: Mean 404-02 CNS Tissue Content (ng/g = ng/mL) ± SEM) was 640 ± 82 ng/g and the concentration at 3 h ([2]; lung, 1 mg/kg/day, read-out: Mean dh404 Lung Tissue Concentration (nM) ± SEM) was 972 ± 215 nM. The concentration at 3 h ([2]; lung, 1 mg/kg/day, read-out: Mean dh404 Lung Tissue Content (ng/g = ng/mL) ± SEM) was 558 ± 123 ng/g, the concentration at 3 h ([2]; lung, 10 mg/kg/day, read-out: Mean dh404 Lung Tissue Concentration (nM) ± SEM) was 7020 ± 1620 nM and the concentration at 3 h ([2]; lung, 10 mg/kg/day, read-out: Mean dh404 Lung Tissue Content (ng/g = ng/mL) ± SEM) was 4030 ± 928 ng/g. It also gave a concentration at 3 h ([2]; lung, 50 mg/kg/day, read-out: Mean dh404 Lung Tissue Concentration (nM) ± SEM) of 12500 ± 2130 nM, a concentration at 3 h ([2]; lung, 50 mg/kg/day, read-out: Mean dh404 Lung Tissue Content (ng/g = ng/mL) ± SEM) of 7160 ± 1220 ng/g and a concentration at 3 h ([2]; lung, 150 mg/kg/day, read-out: Mean dh404 Lung Tissue Concentration (nM) ± SEM) of 16900 ± 2860 nM. The concentration at 3 h ([2]; lung, 150 mg/kg/day, read-out: Mean dh404 Lung Tissue Content (ng/g = ng/mL) ± SEM) was 9720 ± 1640 ng/g, the “Ferritin heavy chain mRNA induction: concentration needed compared with unsaturated counterpart (402, 404)” value (Ferritin heavy chain) was “higher concentrations” and the “Mean Maximum 404-02 Plasma Concentration (nM) ± SEM” value ([3]; 0.5 mg/kg/d, day 1, n=4) was 3.4 ± 0.61 nM. For the same compound, the “Mean Maximum 404-02 Plasma Concentration (ng/mL) ± SEM” value ([3]; 0.5 mg/kg/d, day 1, n=4) was 1.95 ± 0.35 ng/mL, the “Mean Maximum 404-02 Plasma Concentration (ng/mL) ± SEM” value ([3]; 0.5 mg/kg/d, day 12, n=4) was 2.65 ± 0.6 ng/mL and the “Mean Maximum 404-02 Plasma Concentration (nM) ± SEM” value ([3]; 0.5 mg/kg/d, day 12, n=4, listed as 404-02, 0.5 mg/kg/day) was 4.6 nM and 4.6 ± 1.0 nM. For the same compound, the “Mean Maximum 404-02 Plasma Concentration (nM) ± SEM” value ([3]; 5 mg/kg/d, day 1, n=4) was 17.6 ± 6.6 nM, the “Mean Maximum 404-02 Plasma Concentration (ng/mL) ± SEM” value ([3]; 5 mg/kg/d, day 1, n=4) was 10.1 ± 3.8 ng/mL and the “Mean Maximum 404-02 Plasma Concentration (ng/mL) ± SEM” value ([3]; 5 mg/kg/d, day 12, n=4) was 7.3 ± 1.7 ng/mL. For the same compound, the “Mean Maximum 404-02 Plasma Concentration (nM) ± SEM” value ([3]; 5 mg/kg/d, day 12, n=4, listed as 404-02, 5 mg/kg/day) was 12.7 nM and 12.7 ± 2.9 nM, the “Mean Maximum 404-02 Plasma Concentration (nM) ± SEM” value ([3]; 25 mg/kg/d, day 1, n=4) was 29.3 ± 2.3 nM and the “Mean Maximum 404-02 Plasma Concentration (ng/mL) ± SEM” value ([3]; 25 mg/kg/d, day 1, n=4) was 16.8 ± 1.3 ng/mL. For the same compound, the “Mean Maximum 404-02 Plasma Concentration (ng/mL) ± SEM” value ([3]; 25 mg/kg/d, day 12, n=4) was 10.0 ± 3.7 ng/mL, the “Mean Maximum 404-02 Plasma Concentration (nM) ± SEM” value ([3]; 25 mg/kg/d, day 12, n=4, listed as 404-02, 25 mg/kg/day) was 17.5 nM and 17.5 ± 6.4 nM and the “Mean Maximum 404-02 Plasma Concentration (nM) ± SEM” value ([3]; 75 mg/kg/d, day 1, n=4) was 33.8 ± 4.7 nM. The “Mean Maximum 404-02 Plasma Concentration (ng/mL) ± SEM” value ([3]; 75 mg/kg/d, day 1, n=4) was 19.4 ± 2.7 ng/mL, the “Mean Maximum 404-02 Plasma Concentration (nM) ± SEM” value ([3]; 75 mg/kg/d, day 12, n=4, listed as 404-02, 75 mg/kg/day) was 48.6 nM and the “increase in AUC0-24hr after 12 days of dosing compared to day 1” value ([3]; oral, 75 mg/kg dose level) was 1.6 fold. For the same compound, the “accumulation (AUC day 12 vs day 1)” value ([3]; oral, other dose levels (0.5, 5, 25 mg/kg/day)) was “Accumulation was not observed”.
